Values of other authors, collected in patent publication US20060183185A1, “Method for the synthesis of astaxanthin” (priority 2004, published 2006).

Settings: liposome systems; appropriate dose

For `CC1=C(/C=C/C(C)=C/C=C/C(C)=C/C=C/C=C(C)/C=C/C=C(C)/C=C/C2=C(C)C(=O)C(O)CC2(C)C)C(C)(C)CC(O)C1=O` (stereo not shown) [astaxanthin], the “suppression of the peroxyl radical chain reaction” value is given as “completely suppress”.
